How the values were obtained:
[1] = molecular target: T1, β1c subunit of isolated human 20S proteasome (Homo sapiens, UniProt P28072); assay: Proteasome inhibition assay (20 S Proteasome Assay Kit, Z‐LLE‐AMC); format: biochemical; conditions: c = 1 µM, n=1; read-out: Inhibition cCP β1
T1 construct: purchased Enzo Life Sciences
Protocol: (§1) Proteasome inhibition assay. […] The 20 S Proteasome Assay Kit for Drug Discovery was used according to the supplier's protocol using Suc‐LLVY‐AMC (β5), Bz‐VGR‐AMC (β2) or Z‐LLE‐AMC (β1) as substrates (Enzo Life Sciences). Single point measurements of residual activity of proteasome activity were performed at a final concentration of 100 nM (n=3, β5c, β5i) or 1 μM (n=1, β1c, β2c, β5c, β5i, SI chapter 2a, Table S1). […] Inhibitors were prepared in 2‐fold concentration (cfinal=100 nM) and added to proteasomes (mfinal=200 ng/well). After 30 min incubation, substrate was added (cfinal=100 μM), incubated for 60 minutes and fluorescence was read using a Tecan M1000 microplate reader. […] IC50 values were determined from technical duplicates as mean value of three independent experiments.

[2] = molecular target: T2, β5i subunit of isolated human 20S proteasome (Homo sapiens, UniProt P28062); assay: Proteasome inhibition assay (20 S Proteasome Assay Kit, Suc‐LLVY‐AMC); format: biochemical; conditions: for inhibition at 1 µM: c = 1 µM, n=1, read-out: Inhibition iCP β5; for inhibition at 0.1 µM: c=100 nM, read-out: Rel. Inhibition β5i
T2 construct: purchased Enzo Life Sciences
Protocol: as §1

[3] = molecular target: T3, β5c subunit of isolated human 20S proteasome (Homo sapiens, UniProt P28074); assay: as above; format: biochemical; conditions: for inhibition at 1 µM: c = 1 µM, n=1, read-out: Inhibition cCP β5; for inhibition at 0.1 µM: c=100 nM, read-out: Rel. Inhibition β5c
T3 construct: purchased Enzo Life Sciences
Protocol: as §1

[4] = tested on: Danio rerio embryos; assay: Danio rerio embryo toxicity assay (not dechorionated); format: in vivo
Protocol: Danio rerio embryo toxicity assay. Fish keeping protocols are approved by the Darmstadt administrative authority and documented. All fish were treated humanely. […] Embryos were decollated into separate wells containing a total volume of 200 μL and the inhibitor at the given concentration.

[5] = tested on: Danio rerio embryos; assay: Danio rerio escape response (neurotoxicity) assay, dechorionated embryos; format: in vivo; conditions: for C-Bend Amplitude, Difference between means / C-Bend duration, Difference between means / Number of movements per 100 ms, Difference between means / Number of total movements, Difference between means: versus control
Protocol: Danio rerio escape response assay. 24 hours past fertilization embryos were dechorionated and transferred into 96‐well plates containing 198 μL of E3 media at 26 °C. […] Incubation times were 24 h, 48 h and 72 h. Survival of the embryos was determined by visual analysis of heart‐beat. For recording the touch evoked escape response, embryos were transferred to a microscopy slide with cavity that is placed on a SL‐300 LED Soft Light (Dörr, Neu‐Ulm, Germany) under a MotionBlitz EoSens mini1‐1 MC1370 high speed camera (Mikrotron, Unterschleißheim, Germany, Figure S18). An escape response was triggered by a touch stimulus at the trunk of embryos using a small sewing needle, which is slightly blunted. For each embryo, a maximum of 50 stimuli was applied. […] No escape response was determined if only one embryo was alive at 96 hpf. Movement was recorded at 96 hpf at 500 frames per second for 3 seconds using the MotionBlitzDirector 2 software. Determination of the amplitude α defined by the body angle spanned between the head, yolk and tail using a MATLAB‐based software tool and plotted using GraphPad Prism 7.02.

[6] = tested on: MV4‐11 cells; assay: Cell viability endpoint assay (Celltiter Blue, 72 h); format: cell-based; conditions: Homo sapiens, MV4-11, mean±SD from two independent experiments
Protocol: Cell lines. MV4‐11 (ACC 102), Jurkat (ACC 282) and THP‐1 (ACC 16) cells were obtained from DSMZ and maintained at 37 °C and 5 % CO2 at densities between 0.2–1×10^6 cells per mL in RMPI‐1640 medium supplemented with 10 % FBS, L‐glutamine (2 mM) and penicillin/streptomycin.
Cell viability endpoint assay. For the determination of cytotoxicity of proteasome inhibitors 50.000 cells per well were plated in 90 μl RPMI‐1640 medium supplemented with 0.1 % FBS and incubated overnight at 37 °C and 5 % CO2. Inhibitors were serially diluted in RPMI‐1640 medium as 10‐fold stocks and added to cells giving the final concentration (1 nM to 10 μM, Figure S2–S4) and incubated for 72 h at 37 °C and 5 % CO2. Cell viability was determined using the Celltiter Blue assay (Promega) by adding 20 μl of reagent, incubation for 120 minutes at 37 °C and 5 % CO2 and fluorescent read‐out using a Tecan M1000 microplate reader. Dose‐response curves were fitted to the equation “Y=Bottom+(Top‐Bottom)/(1+10^(X−L°^gIC50))” using GraphPad Prism 7.02. IC50 values are determined from technical triplicates as mean value of two independent experiments. Standard deviations (Table S1) as well as dose response curves (SI chapter 2b) are given in the supplementary information.

[7] = molecular target: T4, β2c subunit of isolated human 20S proteasome (Homo sapiens, UniProt Q99436); assay: Proteasome inhibition assay (20 S Proteasome Assay Kit, Bz‐VGR‐AMC); format: biochemical; conditions: c = 1 µM, n=1; read-out: Inhibition cCP β2
T4 construct: purchased Enzo Life Sciences
Protocol: Proteasome inhibition assay. Bortezomib (Selleckchem) and carfilzomib (MedChemExpress) were purchased and used without further purification. The 20 S Proteasome Assay Kit for Drug Discovery was used according to the supplier's protocol using Suc‐LLVY‐AMC (β5), Bz‐VGR‐AMC (β2) or Z‐LLE‐AMC (β1) as substrates (Enzo Life Sciences). Single point measurements of residual activity of proteasome activity were performed at a final concentration of 100 nM (n=3, β5c, β5i) or 1 μM (n=1, β1c, β2c, β5c, β5i, SI chapter 2a, Table S1). […] Inhibitors were prepared in 2‐fold concentration (cfinal=100 nM) and added to proteasomes (mfinal=200 ng/well). After 30 min incubation, substrate was added (cfinal=100 μM), incubated for 60 minutes and fluorescence was read using a Tecan M1000 microplate reader. Dose‐response curves were fitted to the equation Y=100/(1+10^((L°^gIC50−X)*HillSl°^pe)) using GraphPad Prism 7.02. IC50 values were determined from technical duplicates as mean value of three independent experiments.

[8] = 25 μM, 24 h, listed as bortezomib
[9] = 25 μM, 48 h, listed as bortezomib
[10] = 50 μM, 24 h, listed as bortezomib

SMILES: CC(C)C[C@H](NC(=O)[C@H](Cc1ccccc1)NC(=O)c1cnccn1)B(O)O [Bortezomib 1, Bortezomib, reference compound]
- inhibition at 1 µM [1]: 80%
- inhibition at 1 µM [2]: 98%
- inhibition at 0.1 µM [2]: 85%
- inhibition at 1 µM [3]: 98%
- inhibition at 0.1 µM [3]: 89%
- Survival of embryos (not dechorionated) ([4]; 1 µM, 24 h): 100%
- Survival of embryos (not dechorionated) ([4]; 1 µM, 48 h): 100%
- Survival of embryos (not dechorionated) ([4]; 1 µM, 72 h): 100%
- Survival of embryos (not dechorionated) ([4]; 1 µM, 96 h): 100%
- Survival of embryos (not dechorionated) ([4]; 5 µM, 24 h): 100%
- Survival of embryos (not dechorionated) ([4]; 5 µM, 48 h): 100%
- Survival of embryos (not dechorionated) ([4]; 5 µM, 72 h): 100%
- Survival of embryos (not dechorionated) ([4]; 5 µM, 96 h): 80%
- Survival of embryos (not dechorionated) ([4]; 10 µM, 24 h): 100%
- Survival of embryos (not dechorionated) ([4]; 10 µM, 48 h): 100%
- Survival of embryos (not dechorionated) ([4]; 10 µM, 72 h): 100%
- Survival of embryos (not dechorionated) ([4]; 10 µM, 96 h): 100%
- Survival of embryos (not dechorionated) ([4]; 25 µM, 24 h): 100%
- Survival of embryos (not dechorionated) ([4]; 25 µM, 48 h): 100%
- Survival of embryos (not dechorionated) ([4]; 25 µM, 72 h): 100%
- Survival of embryos (not dechorionated) ([4]; 25 µM, 96 h): 80%
- Reflex Duration ([5]; 25 µM, 24 h): 540,2 ± 136,6 ms
- mean reflexes per stimuli ([5]; 25 µM, 24 h): 8%
- C-Bend Amplitude ([5]; 25 μM, 24 h, listed as 1): 131,6 ± 21,3 °
- C-Bend Duration ([5]; 25 μM, 24 h, listed as 1): 32,67 ± 6,489 ms
- Number of movements ([5]; 25 μM, 24 h, listed as 1): 11,56 ± 3,33
- Number of movements per 100 ms ([5]; 25 μM, 24 h, listed as 1): 1,916 ± 0,3504
- C-Bend Amplitude [5, 8]: 131.6±21.3 °
- C-Bend Duration [5, 8]: 32.7 ± 6.5 ms
- Number of movements per 100 ms [5, 8]: 1.92±0.35
- C-Bend Amplitude, Difference between means ([5]; 25 µM, 24 h): 2,556 ± 25,09
- C-Bend duration, Difference between means ([5]; 25 µM, 24 h): 13 ± 6,633
- Number of movements per 100 ms, Difference between means ([5]; 25 µM, 24 h): -1,559 ± 0,4739
- Reflex Duration ([5]; 25 µM, 48 h): 289,3 ± 198,9 ms
- mean reflexes per stimuli ([5]; 25 µM, 48 h): 2%
- C-Bend Amplitude ([5]; 25 μM, 48 h, listed as 1): 6,889 ± 5,549 °
- C-Bend Duration ([5]; 25 μM, 48 h, listed as 1): 8,222 ± 6,654 ms
- Number of movements ([5]; 25 μM, 48 h, listed as 1): 3,222 ± 2,259
- Number of movements per 100 ms ([5]; 25 μM, 48 h, listed as 1): 0,2435 ± 0,1615
- C-Bend Amplitude [5, 9]: 6.9±5.6 °
- Number of movements per 100 ms [5, 9]: 0.24±0.32
- C-Bend Amplitude, Difference between means ([5]; 25 µM, 48 h): -122,1 ± 14,37
- Number of movements per 100 ms, Difference between means ([5]; 25 µM, 48 h): -3,231 ± 0,3577
- Number of total movements, Difference between means ([5]; 25 µM, 48 h): -10,89 ± 3,622
- Number of movements per 100 ms ([5]; 50 μM, 24 h): 0±0
- Reflex Duration ([5]; 50 μM, 24 h): 0 ± 0 ms
- responses to touch stimuli ([5]; 50 μM, 24 h, 50 stimuli per embryo, 150 stimuli total): 0
- C-Bend Amplitude ([5]; 50 μM, 24 h, listed as 1): 0 ± 0 °
- C-Bend Duration ([5]; 50 μM, 24 h, listed as 1): 0 ± 0 ms
- Number of movements ([5]; 50 μM, 24 h, listed as 1): 0 ± 0
- C-Bend Amplitude [5, 10]: 0±0 °
- C-Bend Duration [5, 10]: 0 ± 0 ms
- Number of movements [5, 10]: 0
- C-Bend Amplitude, Difference between means ([5]; 50 µM, 24 h): -129 ± 13,26
- C-Bend duration, Difference between means ([5]; 50 µM, 24 h): -19,67 ± 1,374
- Number of movements per 100 ms, Difference between means ([5]; 50 µM, 24 h): -3,475 ± 0,3192
- Number of total movements, Difference between means ([5]; 50 µM, 24 h): -14,11 ± 2,831
- overall survival at low doses ([5]; dechorionated embryos): 92%
- Survived (embryos of 4) ([5]; dechorionated, 25 µM, 24 h): 4
- Survived (embryos of 4) ([5]; dechorionated, 25 µM, 48 h): 3
- Survived (embryos of 4) ([5]; dechorionated, 50 µM, 24 h): 4
- treated embryos dead ([5]; dechorionated, 50 μM 48 h to 72 h and 25 μM 72 h): 100%
- IC50 [6]: 34 ± 5 nM
- inhibition at 1 µM [7]: 5%

SMILES: Cc1cc(C)c(Oc2ccccc2)cc1NC(=O)C(=O)[C@H](CC(C)C)NC(=O)[C@H](CC(=O)OC(C)(C)C)NC(=O)[C@H](CC(C)C)NC(=O)OCc1ccccc1 [Compound 21, tert ‐Butyl(S)‐3‐((S)‐2‐(((benzyloxy)carbonyl)amino)‐4‐methylpentanamido)‐4‐(((S)‐1‐((2,4‐dime‐thyl‐5‐phenoxyphenyl)amino)‐5‐methyl‐1,2‐dioxohexan‐3‐yl)amino)‐4‐oxobutanoate]
- inhibition at 1 µM [1]: -4%
- inhibition at 1 µM [2]: 17%
- inhibition at 1 µM [3]: 52%
- inhibition at 0.1 µM [3]: 33%
- IC50 [6]: 297 ± 27 nM
- inhibition at 1 µM [7]: 11%

SMILES: CC(C)C[C@@H](C=O)NC(=O)[C@H](CC(=O)OC(C)(C)C)NC(=O)[C@H](CC(C)C)NC(=O)c1cc(Cl)ccc1Cl [Compound 25, tert ‐Butyl (S)‐3‐((S)‐2‐(2,5‐dichlorobenzamido)‐4‐methylpentanamido)‐4‐(((S)‐4‐methyl‐1‐oxopen‐tan‐2‐yl)amino)‐4‐oxobutanoate]
- inhibition at 1 µM [1]: 9%
- inhibition at 1 µM [2]: 75%
- inhibition at 0.1 µM [2]: 38%
- inhibition at 1 µM [3]: 90%
- inhibition at 0.1 µM [3]: 64%
- IC50 [6]: 28 ± 5 nM
- inhibition at 1 µM [7]: 10%

SMILES: Cc1cc(C)c(Oc2ccccc2)cc1NC(=O)C(=O)[C@H](CC(C)C)NC(=O)[C@H](CC(C)C)NC(=O)[C@H](CC(C)C)NC(=O)OCc1ccccc1 [Compound 11, Benzyl((S)‐1‐(((S)‐1‐(((S)‐1‐((2,4‐dimethyl‐5‐phenoxyphenyl)amino)‐5‐methyl‐1,2‐dioxo‐hexan‐3‐yl)amino)‐4‐methyl‐1‐oxopentan‐2‐yl)amino)‐4‐methyl‐1‐oxopentan‐2‐yl)carbama‐te]
- inhibition at 1 µM [1]: -10%
- inhibition at 1 µM [2]: 10%
- inhibition at 0.1 µM [2]: 12%
- inhibition at 1 µM [3]: 59%
- inhibition at 0.1 µM [3]: 46%
- IC50 [6]: 19 ± 1 nM
- inhibition at 1 µM [7]: 10%

Source: PMC6916368, “Cell‐Based Optimization of Covalent Reversible Ketoamide Inhibitors Bridging the Unprimed to the Primed Site of the Proteasome β5 Subunit” (Chemmedchem, 2019)
